Results published in ChEMBL document CHEMBL1201862, “PubChem BioAssay data set” (2004).
Calls of active or inactive are those of the source.

How the values were obtained:
HEK293 [1] = assay: optical interference in Abeta FP readout, dose response, artefact control for IDE activator project, biochemical, fluorescence polarization (AID 588442); format: functional, cell-based; conditions: Homo sapiens
Insulin-degrading enzyme [2] = target: T1, Insulin-degrading enzyme (Homo sapiens, UniProt P14735); assay: activators of recombinant IDE enzyme, dose response, counter-screen for IDE activator project, biochemical, fluorescence polarization (AID 588681)
T1 sequence (P14735 whole entry): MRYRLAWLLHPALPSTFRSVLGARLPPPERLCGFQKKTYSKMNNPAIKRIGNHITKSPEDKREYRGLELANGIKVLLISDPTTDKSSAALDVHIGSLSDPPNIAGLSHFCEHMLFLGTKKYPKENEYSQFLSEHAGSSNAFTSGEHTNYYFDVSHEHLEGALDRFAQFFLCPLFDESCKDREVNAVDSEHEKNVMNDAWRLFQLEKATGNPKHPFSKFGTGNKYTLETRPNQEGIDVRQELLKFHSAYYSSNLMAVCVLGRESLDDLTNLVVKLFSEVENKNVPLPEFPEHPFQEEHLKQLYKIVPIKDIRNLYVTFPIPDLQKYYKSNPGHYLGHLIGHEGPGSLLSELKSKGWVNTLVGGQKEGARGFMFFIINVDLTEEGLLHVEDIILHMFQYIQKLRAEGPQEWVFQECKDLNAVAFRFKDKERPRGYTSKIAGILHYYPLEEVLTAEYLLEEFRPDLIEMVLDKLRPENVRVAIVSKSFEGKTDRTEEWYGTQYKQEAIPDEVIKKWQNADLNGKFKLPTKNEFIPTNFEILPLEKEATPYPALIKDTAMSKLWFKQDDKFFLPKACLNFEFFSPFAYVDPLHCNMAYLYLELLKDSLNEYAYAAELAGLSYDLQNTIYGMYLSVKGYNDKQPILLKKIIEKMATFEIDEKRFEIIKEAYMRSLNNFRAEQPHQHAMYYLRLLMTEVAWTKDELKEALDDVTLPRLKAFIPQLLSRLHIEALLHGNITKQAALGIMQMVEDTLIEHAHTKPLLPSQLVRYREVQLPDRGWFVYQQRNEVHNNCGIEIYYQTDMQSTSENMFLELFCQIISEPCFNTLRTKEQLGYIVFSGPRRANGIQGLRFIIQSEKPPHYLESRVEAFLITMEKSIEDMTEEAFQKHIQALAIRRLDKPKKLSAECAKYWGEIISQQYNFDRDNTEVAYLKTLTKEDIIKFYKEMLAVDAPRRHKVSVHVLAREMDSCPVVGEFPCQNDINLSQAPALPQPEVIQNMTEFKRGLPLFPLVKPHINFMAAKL

Insulin-degrading enzyme [3] = target: T1, Insulin-degrading enzyme; assay: activators of endogenous IDE in HEK cells, dose response, cell-based, fluorescence polarization (AID 588439); format: functional
HEK293 [4] = assay: HEK cell cytotoxicity by LDH release, dose response, cytotoxicity control for IDE activator project, fluorescence, HEK cells (AID 588440); format: functional, cell-based; conditions: Homo sapiens;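 note: cytotoxicity by LDH release measuring loss of membrane integrity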
[5] = target: DNA dC->dU-editing enzyme APOBEC-3G (Homo sapiens, UniProt Q9HC16); assay: APOBEC3G deaminase inhibitors, SAR follow-up, biochemical, fluorescence, single-stranded DNA substrate (AID 602136); format: functional; conditions: read-out: IC50_Mean
DNA dC->dU-editing enzyme APOBEC-3G, sequence (Q9HC16 whole entry): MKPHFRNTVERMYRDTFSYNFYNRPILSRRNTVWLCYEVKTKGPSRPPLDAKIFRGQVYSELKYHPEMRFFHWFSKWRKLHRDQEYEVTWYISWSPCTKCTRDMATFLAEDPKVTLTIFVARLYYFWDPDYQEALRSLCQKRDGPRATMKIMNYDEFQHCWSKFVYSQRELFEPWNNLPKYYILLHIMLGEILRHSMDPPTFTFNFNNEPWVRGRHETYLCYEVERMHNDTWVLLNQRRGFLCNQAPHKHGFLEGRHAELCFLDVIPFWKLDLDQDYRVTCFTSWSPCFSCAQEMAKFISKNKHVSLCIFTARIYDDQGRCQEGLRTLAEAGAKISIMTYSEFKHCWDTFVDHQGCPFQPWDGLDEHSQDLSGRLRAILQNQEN

[6] = target: DNA dC->dU-editing enzyme APOBEC-3A (Homo sapiens, UniProt P31941); assay: SAR analysis of small molecule inhibitors of APOBEC3A DNA Deaminase via a fluorescence-based single-stranded DNA deaminase assay.; format: functional; conditions: read-out: IC50_Mean
DNA dC->dU-editing enzyme APOBEC-3A, sequence (P31941 whole entry): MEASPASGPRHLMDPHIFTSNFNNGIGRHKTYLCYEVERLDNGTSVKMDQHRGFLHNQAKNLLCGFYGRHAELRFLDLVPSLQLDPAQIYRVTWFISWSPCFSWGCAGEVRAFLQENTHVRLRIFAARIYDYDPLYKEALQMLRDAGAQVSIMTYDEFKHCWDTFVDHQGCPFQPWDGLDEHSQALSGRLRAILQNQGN

Cytochrome P450 2D6 = Cytochrome P450 2D6 (Homo sapiens, UniProt P10635);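 note: CYP2D6 member of a cytochrome P450 panel assay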
Cytochrome P450 2D6, sequence (P10635 whole entry): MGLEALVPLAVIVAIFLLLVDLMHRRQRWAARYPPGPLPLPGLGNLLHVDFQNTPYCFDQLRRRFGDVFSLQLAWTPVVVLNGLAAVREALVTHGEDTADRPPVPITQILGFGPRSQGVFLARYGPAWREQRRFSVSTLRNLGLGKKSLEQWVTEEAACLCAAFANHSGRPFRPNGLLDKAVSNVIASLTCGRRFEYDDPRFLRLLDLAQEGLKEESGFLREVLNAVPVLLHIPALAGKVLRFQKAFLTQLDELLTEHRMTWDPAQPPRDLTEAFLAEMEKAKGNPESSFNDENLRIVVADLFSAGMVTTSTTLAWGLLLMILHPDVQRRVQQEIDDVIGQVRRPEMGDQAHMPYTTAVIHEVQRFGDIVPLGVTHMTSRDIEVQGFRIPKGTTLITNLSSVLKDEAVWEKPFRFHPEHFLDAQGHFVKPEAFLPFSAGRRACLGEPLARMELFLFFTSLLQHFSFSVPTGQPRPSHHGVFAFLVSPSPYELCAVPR

Cytochrome P450 2C9 = Cytochrome P450 2C9 (Homo sapiens, UniProt P11712)
Cytochrome P450 2C9, sequence (P11712 whole entry): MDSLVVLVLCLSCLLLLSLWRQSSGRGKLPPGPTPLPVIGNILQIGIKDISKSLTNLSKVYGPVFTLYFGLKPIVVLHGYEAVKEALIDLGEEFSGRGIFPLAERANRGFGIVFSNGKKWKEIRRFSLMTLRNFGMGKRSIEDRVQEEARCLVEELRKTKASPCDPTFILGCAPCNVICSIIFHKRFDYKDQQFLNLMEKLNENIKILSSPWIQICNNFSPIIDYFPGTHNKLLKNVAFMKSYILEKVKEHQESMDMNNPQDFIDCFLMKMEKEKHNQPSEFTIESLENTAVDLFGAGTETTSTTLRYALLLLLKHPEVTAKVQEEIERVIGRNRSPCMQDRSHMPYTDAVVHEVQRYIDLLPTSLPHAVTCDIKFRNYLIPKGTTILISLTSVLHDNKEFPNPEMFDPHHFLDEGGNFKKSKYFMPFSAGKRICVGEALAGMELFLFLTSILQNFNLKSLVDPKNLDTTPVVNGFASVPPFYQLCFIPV

Cytochrome P450 2C19 = Cytochrome P450 2C19 (Homo sapiens, UniProt P33261); assay: Cytochrome panel assay with activity outcomes. Panel member name: p450-cyp2c19 Compounds with AC50 equal or less than 10 uM are considered active; format: functional; conditions: read-out: AC50
Cytochrome P450 2C19, sequence (P33261 whole entry): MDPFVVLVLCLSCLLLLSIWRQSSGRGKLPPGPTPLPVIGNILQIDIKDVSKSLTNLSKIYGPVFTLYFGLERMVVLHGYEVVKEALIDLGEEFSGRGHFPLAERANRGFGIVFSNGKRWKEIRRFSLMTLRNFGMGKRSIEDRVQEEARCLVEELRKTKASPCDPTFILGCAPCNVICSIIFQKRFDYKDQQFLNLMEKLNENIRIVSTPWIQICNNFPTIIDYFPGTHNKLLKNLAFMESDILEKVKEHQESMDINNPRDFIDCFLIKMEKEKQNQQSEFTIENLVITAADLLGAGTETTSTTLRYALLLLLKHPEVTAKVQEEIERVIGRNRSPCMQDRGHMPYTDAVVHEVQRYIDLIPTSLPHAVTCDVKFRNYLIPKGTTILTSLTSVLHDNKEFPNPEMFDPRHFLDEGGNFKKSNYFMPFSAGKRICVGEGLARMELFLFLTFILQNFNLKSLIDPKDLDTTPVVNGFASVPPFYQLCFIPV

[7] = target: T2, Sentrin-specific protease 7 (Homo sapiens, UniProt Q9BQF6); assay: SENP7 protease inhibitors, SAR follow-up, biochemical, luminescence, set 2 (AID 588600); format: functional
T2 sequence (Q9BQF6 whole entry): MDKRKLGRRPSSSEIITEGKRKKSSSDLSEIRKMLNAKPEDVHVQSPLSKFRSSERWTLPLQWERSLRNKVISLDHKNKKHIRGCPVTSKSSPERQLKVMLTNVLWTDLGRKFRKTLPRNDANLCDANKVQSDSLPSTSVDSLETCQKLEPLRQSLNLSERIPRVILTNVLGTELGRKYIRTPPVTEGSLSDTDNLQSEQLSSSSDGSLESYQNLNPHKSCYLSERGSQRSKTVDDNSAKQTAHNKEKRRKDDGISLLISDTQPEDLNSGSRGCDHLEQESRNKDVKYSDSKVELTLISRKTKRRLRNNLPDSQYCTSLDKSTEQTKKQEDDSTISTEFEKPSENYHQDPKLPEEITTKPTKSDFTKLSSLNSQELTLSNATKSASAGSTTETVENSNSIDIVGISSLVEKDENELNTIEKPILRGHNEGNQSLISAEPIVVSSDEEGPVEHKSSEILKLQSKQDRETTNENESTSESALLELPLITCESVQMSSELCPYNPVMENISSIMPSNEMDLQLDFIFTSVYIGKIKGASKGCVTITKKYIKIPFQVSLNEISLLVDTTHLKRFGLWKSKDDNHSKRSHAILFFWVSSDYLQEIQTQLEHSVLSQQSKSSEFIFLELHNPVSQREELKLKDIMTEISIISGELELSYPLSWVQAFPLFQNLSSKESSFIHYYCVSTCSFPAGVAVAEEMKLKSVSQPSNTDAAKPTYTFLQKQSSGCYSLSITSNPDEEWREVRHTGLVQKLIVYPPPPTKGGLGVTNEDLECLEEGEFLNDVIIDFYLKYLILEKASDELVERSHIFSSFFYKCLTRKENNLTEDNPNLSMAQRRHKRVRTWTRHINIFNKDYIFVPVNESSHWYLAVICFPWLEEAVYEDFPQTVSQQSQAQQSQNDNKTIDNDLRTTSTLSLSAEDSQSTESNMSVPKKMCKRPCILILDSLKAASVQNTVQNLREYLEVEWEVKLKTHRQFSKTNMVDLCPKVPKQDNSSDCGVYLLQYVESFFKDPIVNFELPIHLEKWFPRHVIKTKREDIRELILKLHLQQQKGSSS

[8] = target: T3, Sentrin-specific protease 8 (Homo sapiens, UniProt Q96LD8); assay: SENP8 protease inhibitors, SAR follow-up, biochemical, luminescence (AID 504501); format: functional
T3 sequence (Q96LD8 whole entry): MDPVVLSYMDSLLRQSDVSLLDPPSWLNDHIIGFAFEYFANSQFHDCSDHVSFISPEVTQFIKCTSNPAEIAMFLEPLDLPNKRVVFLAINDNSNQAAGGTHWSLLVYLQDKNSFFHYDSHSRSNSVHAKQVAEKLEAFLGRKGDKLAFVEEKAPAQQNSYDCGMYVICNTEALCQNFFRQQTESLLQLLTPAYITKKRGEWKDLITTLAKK

[9] = target: T4, Sentrin-specific protease 6 (Homo sapiens, UniProt Q9GZR1); assay: SENP6 protease inhibitors, SAR follow-up, biochemical, luminescence, set 2 (AID 588598); format: functional
T4 sequence (Q9GZR1 whole entry): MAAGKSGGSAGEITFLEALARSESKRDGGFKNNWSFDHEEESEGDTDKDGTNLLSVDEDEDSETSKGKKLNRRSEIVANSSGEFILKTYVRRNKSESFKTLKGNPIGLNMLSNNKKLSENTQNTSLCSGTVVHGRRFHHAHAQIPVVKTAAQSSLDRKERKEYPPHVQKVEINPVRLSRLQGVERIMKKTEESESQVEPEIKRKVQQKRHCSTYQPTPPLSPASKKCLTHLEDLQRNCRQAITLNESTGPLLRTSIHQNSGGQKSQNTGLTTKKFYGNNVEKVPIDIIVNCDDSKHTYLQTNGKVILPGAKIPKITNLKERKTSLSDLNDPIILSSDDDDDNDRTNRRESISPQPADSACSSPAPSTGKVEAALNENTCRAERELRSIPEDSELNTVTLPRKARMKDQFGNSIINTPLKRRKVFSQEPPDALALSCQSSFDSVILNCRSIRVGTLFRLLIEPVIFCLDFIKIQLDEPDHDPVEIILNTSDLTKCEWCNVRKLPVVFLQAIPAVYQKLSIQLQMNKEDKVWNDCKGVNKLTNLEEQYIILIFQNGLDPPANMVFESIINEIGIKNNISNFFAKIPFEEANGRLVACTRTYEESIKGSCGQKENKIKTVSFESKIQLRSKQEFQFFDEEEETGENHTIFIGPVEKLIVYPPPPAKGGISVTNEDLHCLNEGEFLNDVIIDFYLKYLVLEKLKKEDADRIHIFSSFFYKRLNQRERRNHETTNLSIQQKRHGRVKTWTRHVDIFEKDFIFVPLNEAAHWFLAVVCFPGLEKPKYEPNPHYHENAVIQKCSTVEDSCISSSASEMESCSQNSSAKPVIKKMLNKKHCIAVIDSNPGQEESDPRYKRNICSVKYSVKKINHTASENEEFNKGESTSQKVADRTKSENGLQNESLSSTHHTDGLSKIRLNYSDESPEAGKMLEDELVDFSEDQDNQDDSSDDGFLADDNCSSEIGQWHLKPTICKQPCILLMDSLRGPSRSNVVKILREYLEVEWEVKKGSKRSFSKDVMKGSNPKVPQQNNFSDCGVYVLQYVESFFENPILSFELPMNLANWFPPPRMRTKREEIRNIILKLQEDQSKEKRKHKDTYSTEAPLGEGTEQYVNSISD

[10] = target: T4, Sentrin-specific protease 6; assay: SAR Analysis of small molecule inhibitors of Sentrin-specific protease 6 (SENP6) using a Luminescent assay. [Related pubchem assays (depositor defined):AID2582, AID2599]; format: functional
[11] = target: T3, Sentrin-specific protease 8; assay: SENP8 protease inhibitors, SAR follow-up, biochemical, luminescence, set 2 (AID 588601); format: functional
Caspase-3 [12] = target: T5, Caspase-3 (Homo sapiens, UniProt P42574); assay: SAR Analysis of small molecule inhibitors of Sentrin-specific proteases (SENPs) using a Caspase-3 Selectivity assay. [Related pubchem assays (depositor defined):AID2540, AID2599, AID434973, AID489001]; format: functional
T5 sequence (P42574 whole entry): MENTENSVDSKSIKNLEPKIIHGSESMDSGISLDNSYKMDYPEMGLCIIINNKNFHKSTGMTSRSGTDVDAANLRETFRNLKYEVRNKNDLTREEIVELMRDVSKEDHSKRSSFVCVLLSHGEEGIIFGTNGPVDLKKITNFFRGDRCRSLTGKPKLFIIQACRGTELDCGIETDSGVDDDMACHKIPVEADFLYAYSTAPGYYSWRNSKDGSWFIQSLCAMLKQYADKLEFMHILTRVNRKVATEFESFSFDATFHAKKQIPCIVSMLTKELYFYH

[13] = target: T2, Sentrin-specific protease 7; assay: SENP7 protease inhibitors, SAR follow-up, biochemical, luminescence (AID 504497); format: functional
Caspase-3 [14] = target: T5, Caspase-3; assay: caspase-3 inhibitors as off-family protease, SAR follow-up, selectivity assay for SENP protease inhibitor project, biochemical, luminescence, set 2 (AID 588599); format: functional

Row | SMILES | EC50 (HEK293 [1]) | EC50 (Insulin-degrading enzyme [2]) | EC50 (Insulin-degrading enzyme [3]) | IC50 (HEK293 [4]) | IC50 [5] | IC50 [6] | IC50 [7] | IC50 [9] | IC50 [11] | IC50 (Caspase-3 [14]) | further results
1 | O=C(Nc1ccc(-c2nc3ccccc3o2)cc1)c1ccc2c(c1)OCO2 | > 55.9 µM (inactive) | > 54.7 µM (inactive) | > 54.7 µM (inactive) | > 9.91 µM (active) | – | – | – | – | – | – | –
2 | C=CCSc1nnc(-c2cc3c(C(F)(F)F)nn(C)c3s2)n1C | – | – | – | – | 70.8 µM (inactive) | > 99 µM (inactive) | – | – | – | – | AC50 (Cytochrome P450 2D6): 17.8 µM (inconclusive); AC50 (Cytochrome P450 2C9): inconclusive; AC50 (Cytochrome P450 2C19): 3.55 µM (inconclusive)
3 | C1CCCCCC(=NNc2nn[nH]n2)CCCCC1 | > 56 µM (inactive) | > 54.7 µM (inactive) | > 54.7 µM (inactive) | > 89.2 µM (inactive) | – | – | – | – | – | – | –
4 | Cn1cccc1C(=O)Nc1nc2ccc(Cl)cc2s1 | – | – | – | – | – | – | 0.558 µM (active) | 0.652 µM (active) | 0.619 µM (active) | 0.465 µM (active) | IC50 [8]: 0.52 µM (active); IC50 [10]: 0.54 µM (active); IC50 (Caspase-3 [12]): 0.42 µM (active); IC50 [13]: 0.49 µM (active)
5 | CCN1CCN(CCCNC(=O)C(=O)c2c[nH]c3ccccc23)CC1 | – | – | – | – | – | – | > 99 µM (inactive) | > 99 µM (inactive) | > 99 µM (inactive) | > 99 µM (inactive) | –
6 | Cc1cc(C(=O)Cn2ccccc2=O)c(C)n1Cc1ccccc1 | – | – | – | – | > 99 µM (inactive) | > 99 µM (inactive) | – | – | – | – | –
